According to ChEMBL document CHEMBL1201862, “PubChem BioAssay data set” (2004):
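Growth conditions: 96-well plates. Treatment: test compound, 48 hours, 5 concentrations. Analysis: linear interpolation between bracketing concentrations; unreached endpoints set to highest concentration. At the GI50, growth is halved.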 Active and inactive are the calls of the source. Cut-off read from the data, not from the text of the source: active = GI50 up to about 1.1 µM and inactive = higher.

Columns and labels:
Test in all cases: NCI-60 cell line screen, 48 h
786-0 = test system: 786-0
ACHN = test system: ACHN
EKVX = test system: EKVX
HCC 2998 = test system: HCC 2998
HT-29 = test system: HT-29
K562 = test system: K562
NCI-H460 = test system: NCI-H460
OVCAR-4 = test system: OVCAR-4
SF-268 = test system: SF-268
SF-295 = test system: SF-295
SNB-19 = test system: SNB-19
SNB-75 = test system: SNB-75
SW-620 = test system: SW-620
UACC-257 = test system: UACC-257
UACC-62 = test system: UACC-62
NCI-H522 = test system: NCI-H522
SK-MEL-2 = test system: SK-MEL-2
A498 = test system: A498

Row | SMILES | GI50 (786-0) | GI50 (ACHN) | GI50 (EKVX) | GI50 (HCC 2998) | GI50 (HT-29) | GI50 (K562) | GI50 (NCI-H460) | GI50 (OVCAR-4) | GI50 (SF-268) | GI50 (SF-295) | GI50 (SNB-19) | GI50 (SNB-75) | GI50 (SW-620) | GI50 (UACC-257) | GI50 (UACC-62) | GI50 (NCI-H522) | GI50 (SK-MEL-2) | GI50 (A498)
1 | CS/C(=N/C#N)NCCc1c[nH]c2ccccc12 | 45.6 µM (inactive) | 25.1 µM (inactive) | 18 µM (inactive) | > 100 µM (inactive) | 98.4 µM (inactive) | 67 µM (inactive) | > 100 µM (inactive) | > 100 µM (inactive) | > 100 µM (inactive) | > 100 µM (inactive) | > 100 µM (inactive) | 35.2 µM (inactive) | > 100 µM (inactive) | > 100 µM (inactive) | > 100 µM (inactive) |  |  | 
2 | COc1cc(/C=C(\C#N)C(=O)c2ccccc2)ccc1OCc1ccccc1 | > 100 µM (inactive) | > 100 µM (inactive) | > 100 µM (inactive) | > 100 µM (inactive) |  | > 100 µM (inactive) |  | > 100 µM (inactive) |  | > 100 µM (inactive) | > 100 µM (inactive) |  | > 100 µM (inactive) | > 100 µM (inactive) | > 100 µM (inactive) | > 100 µM (inactive) | > 100 µM (inactive) | 
3 | O=C(NC(=O)c1cn(CCN(CCO)C(=O)NCCCCCCNC(=O)N(CCO)CCn2cc(C(=O)NC(=O)OCc3ccccc3)c(=O)[nH]c2=O)c(=O)[nH]c1=O)OCc1ccccc1 | > 100 µM (inactive) | > 100 µM (inactive) | > 100 µM (inactive) |  | > 100 µM (inactive) | > 100 µM (inactive) | > 100 µM (inactive) | > 100 µM (inactive) |  | > 100 µM (inactive) | > 100 µM (inactive) | > 100 µM (inactive) | > 100 µM (inactive) | > 100 µM (inactive) | > 100 µM (inactive) |  | > 100 µM (inactive) | 
4 | CN(C)CC/C(=N\Nc1ccc(Cl)cc1)c1ccccc1 | 1.26 µM (inactive) | 0.478 µM (active) | 1.36 µM (inactive) |  | 1.28 µM (inactive) | 0.327 µM (active) | 1.1 µM (active) | 1.77 µM (inactive) | 0.566 µM (active) | 0.374 µM (active) | 2.43 µM (inactive) | 2.15 µM (inactive) | 0.431 µM (active) | 1.64 µM (inactive) | 0.556 µM (active) | 1.32 µM (inactive) | 1.86 µM (inactive) | 3.64 µM (inactive)
5 | CC(=O)C1C(c2ccc(N(C)C)cc2)c2cc3c(cc2OC1(C)O)OCO3 (stereo not drawn) | 36.7 µM (inactive) | 41.2 µM (inactive) | 77.6 µM (inactive) |  | 23.2 µM (inactive) | 24 µM (inactive) | 34.4 µM (inactive) | 33.7 µM (inactive) |  | 28.7 µM (inactive) | 75.7 µM (inactive) | 24.7 µM (inactive) | 40.2 µM (inactive) | 51.8 µM (inactive) | 32.9 µM (inactive) |  | 33.3 µM (inactive) | 
6 | CC(=O)OCC1OC(n2cc(F)c(=O)[nH]c2=O)C(NC(=O)N(CCCl)N=O)C(OC(C)=O)C1OC(C)=O (stereo not drawn) | 54.2 µM (inactive) | > 100 µM (inactive) |  |  | > 100 µM (inactive) | > 100 µM (inactive) | 18.7 µM (inactive) | > 100 µM (inactive) | 17.3 µM (inactive) | 43.1 µM (inactive) | > 100 µM (inactive) | 16.6 µM (inactive) | > 100 µM (inactive) | > 100 µM (inactive) | 23.2 µM (inactive) | > 100 µM (inactive) |  | > 100 µM (inactive)
7 | CC(=O)Nc1cc2c(s1)CCC1CC(=O)NN=C21 (stereo not drawn) | > 100 µM (inactive) | > 100 µM (inactive) | > 100 µM (inactive) |  | > 100 µM (inactive) | > 100 µM (inactive) | > 100 µM (inactive) | > 100 µM (inactive) | > 100 µM (inactive) | > 100 µM (inactive) | > 100 µM (inactive) | 26.5 µM (inactive) | > 100 µM (inactive) |  | > 100 µM (inactive) | > 100 µM (inactive) | > 100 µM (inactive) | 
